From ChEMBL document CHEMBL1133524 (J Med Chem, 2000)
In brackets after ≈: the same amount, converted by molar mass. Activity calls are given as the source filed them. The calls are words filed in the database; no cut-off is given here.

Tests used:
KB [1] = experiment: Tested in vitro for cytotoxic activity against P-glycoprotein-expressing epidermoid carcinoma of the nasopharynx(KB-VIN) cell line; format: functional, Homo sapiens
HOS [2] = experiment: Tested in vitro for cytotoxic activity against bone(HOS) cell line; format: functional, Homo sapiens
HCT-8 [3] = experiment: Tested in vitro for cytotoxic activity against ileocecal carcinoma (HCT-8) cell line; format: functional, Homo sapiens
1A9 [4] = experiment: Tested in vitro for cytotoxic activity against Human ovarian cancer (IA9) cell line; format: functional
SK-MEL-2 [5] = experiment: Tested in vitro for cytotoxic activity against melanoma (SKMEL-2) cell line; format: functional, Homo sapiens
PC-3 [6] = experiment: Tested in vitro for cytotoxic activity against prostate cancer (PC3) cell line; format: functional, Homo sapiens
U-87 MG [7] = experiment: Tested in vitro for cytotoxic activity against glioblastoma (U-87-MG) cell line; format: functional, Homo sapiens, U-87MG ATCC
A549 = format: functional, Homo sapiens
Description: Tested in vitro for cytotoxic activity against lung carcinoma (A-549) cell line

KB [8] = experiment: Tested in vitro for cytotoxic activity against epidermoid carcinoma of the nasopharynx(KB) cell line; format: functional, Homo sapiens
MCF7 = experiment: Tested in vitro for cytotoxic activity against breast cancer (MCF-7) cell line; format: functional, Homo sapiens
Tubulin = Tubulin (Bos taurus, UniProt Q6B856+Q862L2+Q862F3); experiment: Inhibition of bovine tubulin polymerization; format: functional
U-87 MG [9] = experiment: Tested in vitro for cytotoxic activity against glioblastoma (U-87-MG) cell line; NA means Not active; format: functional, cell-based; conditions: Homo sapiens; U-87MG ATCC
KB [10] = experiment: Tested in vitro for cytotoxic activity against epidermoid carcinoma of the nasopharynx(KB) cell line; NA means Not active; format: functional, cell-based; conditions: Homo sapiens
U-87 MG [11] = experiment: Tested in vitro for cytotoxic activity against glioblastoma (U-87-MG) cell line;NA means not active.; format: functional, cell-based; conditions: Homo sapiens; U-87MG ATCC
1A9 [12] = experiment: Tested in vitro for cytotoxic activity against Human ovarian cancer (IA9) cell line; NA means Not active; format: functional, cell-based
HOS [13] = experiment: Tested in vitro for cytotoxic activity against bone(HOS) cell line; NA means Not active; format: functional, cell-based; conditions: Homo sapiens
HCT-8 [14] = experiment: Tested in vitro for cytotoxic activity against ileocecal carcinoma (HCT-8) cell line; NA means Not active; format: functional, cell-based; conditions: Homo sapiens
Tubulin (Bos taurus) = Tubulin (Bos taurus) (UniProt Q6B856+Q862L2+Q862F3); experiment: Tested for inhibition of radioligand colchicine binding to bovine tubulin; format: protein assay; conditions: concentration not given here
SK-MEL-2 [15] = experiment: Tested in vitro for cytotoxic activity against melanoma (SKMEL-2) cell line; NA means Not active; format: functional, cell-based; conditions: Homo sapiens
1A9 [16] = experiment: Tested in vitro for cytotoxic activity against human ovarian cancer (IA9)cell line; format: functional
PC-3 [17] = experiment: Tested in vitro for cytotoxic activity against prostate cancer (PC3) cell line; NA means Not active; format: functional, cell-based; conditions: Homo sapiens

| SMILES | ED50 (KB [1]) [µg/mL] | ED50 (HOS [2]) [µg/mL] | ED50 (HCT-8 [3]) [µg/mL] | ED50 (1A9 [4]) [µg/mL] | ED50 (SK-MEL-2 [5]) [µg/mL] | ED50 (PC-3 [6]) [µg/mL] | ED50 (U-87 MG [7]) [µg/mL] | ED50 (A549) [µg/mL] | ED50 (KB [8]) [µg/mL] | ED50 (MCF7) [µg/mL] | IC50 (Tubulin) [µM] | ED50 (U-87 MG [9]) | also measured |
| --- | --- | --- | --- | --- | --- | --- | --- | --- | --- | --- | --- | --- | --- |
| COc1cccc(-c2nc(O)c3cc(Cl)ccc3n2)c1 | 6.5 (≈ 22.7 µM) | 17 (≈ 59.3 µM) | 6 (≈ 20.9 µM) | > 20 | 4.8 (≈ 16.7 µM) | 4.5 (≈ 15.7 µM) | 10 (≈ 34.9 µM) | 3.2 (≈ 11.2 µM) | – | – | – | – | – |
| COc1cccc(-c2nc(O)c3cc(N(C)C)ccc3n2)c1 | 0.42 (≈ 1.42 µM) | > 20 | – | 0.49 (≈ 1.66 µM) | 19 (≈ 64.3 µM) | 15 (≈ 50.8 µM) | > 20 | 14 (≈ 47.4 µM) | 10 (≈ 33.9 µM) | 0.85 (≈ 2.88 µM) | – | – | – |
| COc1cccc(C2NC(=O)c3ccccc3N2)c1 (centres undefined) | 1.2 (≈ 4.72 µM) | > 20 | 1.5 (≈ 5.9 µM) | 1 (≈ 3.93 µM) | > 20 | > 20 | > 20 | 3 (≈ 11.8 µM) | 3 (≈ 11.8 µM) | > 20 | 5.6 | – | – |
| COc1cccc(-c2cc(O)c3cc(N4CCCC4)ccc3n2)c1 | – | – | – | – | – | – | – | – | – | – | 0.32 | – | – |
| COc1ccccc1C1NC(=O)c2ccccc2N1 (centres undefined) | 10.2 (≈ 40.1 µM) | > 20 | > 20 | – | < 20 | > 20 | – | > 20 | > 20 | > 20 | > 40 | inactive | Inhibition (PC-3 [6]): 30%; Inhibition (KB [8]): 32% |
| COc1ccc(OC)c(-c2nc(O)c3ccccc3n2)c1 | > 20 | > 20 | > 20 | > 20 | > 20 | > 20 | – | > 20 | > 20 | > 20 | – | inactive | – |
| COc1cccc(-c2nc(O)c3ccccc3n2)c1 | > 20 | > 20 | > 20 | > 20 | > 20 | > 20 | – | > 20 | – | 26 (≈ 103 µM) | – | inactive | ED50 (KB [10]): inactive |
| COc1cccc(-c2nc(O)c3cc(N4CCOCC4)ccc3n2)c1 | 3.7 (≈ 11 µM) | – | – | 3.8 (≈ 11.3 µM) | 4.8 (≈ 14.2 µM) | – | 20 (≈ 59.3 µM) | – | 8.2 (≈ 24.3 µM) | 4.5 (≈ 13.3 µM) | – | – | – |
| COc1ccc(-c2nc(O)c3ccccc3n2)cc1 | > 20 | > 20 | > 20 | > 20 | > 20 | > 20 | – | > 20 | > 20 | > 20 | – | – | ED50 (U-87 MG [11]): inactive |
| COc1ccc(-c2nc(O)c3ccccc3n2)c(OC)c1 | > 20 | > 20 | > 20 | – | > 20 | > 20 | > 20 | > 20 | > 20 | > 20 | – | – | ED50 (1A9 [12]): inactive |
| COc1cccc(-c2nc(O)c3cc(F)ccc3n2)c1 | 18 (≈ 66.6 µM) | – | > 20 | – | > 20 | 20 (≈ 74 µM) | > 20 | – | > 20 | > 20 | – | – | ED50 (1A9 [12]): inactive; ED50 (HOS [13]): inactive |
| COc1ccc(-c2nc(O)c3ccccc3n2)cc1OC | > 20 | > 20 | > 20 | > 20 | > 20 | > 20 | – | > 20 | > 20 | > 20 | – | inactive | – |
| COc1cc(OC)cc(C2NC(=O)c3ccccc3N2)c1 (centres undefined) | 1.6 (≈ 5.63 µM) | > 20 | 3 (≈ 10.6 µM) | – | 4.4 (≈ 15.5 µM) | > 20 | > 20 | 5 (≈ 17.6 µM) | 4.7 (≈ 16.5 µM) | > 20 | 12 | – | – |
| COc1cccc(C2NC(=O)c3ccccc3N2)c1OC (centres undefined) | 8.6 (≈ 30.2 µM) | > 20 | > 20 | – | < 20 | > 20 | – | > 20 | > 20 | > 20 | > 40 | – | ED50 (U-87 MG [11]): inactive; Inhibition (PC-3 [6]): 20%; Inhibition (KB [8]): 41% |
| COc1cccc(-c2nc(O)c3cc4c(cc3n2)OCO4)c1 | > 20 | > 20 | – | > 20 | > 20 | > 20 | – | > 20 | > 20 | > 20 | – | inactive | ED50 (HCT-8 [14]): inactive |
| COc1ccc(C2NC(=O)c3ccccc3N2)cc1 (centres undefined) | > 20 | > 20 | > 20 | 20 (≈ 78.7 µM) | > 20 | > 20 | – | > 20 | > 20 | > 20 | > 40 | inactive | Inhibition (KB [1]): 39%; Inhibition (PC-3 [6]): 14% |
| COc1cc(OC)cc(-c2nc(O)c3ccccc3n2)c1 | > 20 | – | – | – | > 20 | > 20 | – | > 20 | – | > 20 | – | inactive | ED50 (HCT-8 [14]): inactive; ED50 (1A9 [12]): inactive; ED50 (KB [10]): inactive; ED50 (HOS [13]): inactive |
| COc1cccc(-c2nc(O)c3cc(N4CCCC4)ccc3n2)c1 | 0.1 (≈ 0.311 µM) | 7 (≈ 21.8 µM) | 0.06 (≈ 0.187 µM) | 0.09 (≈ 0.28 µM) | 0.09 (≈ 0.28 µM) | 15 (≈ 46.7 µM) | – | 0.5 (≈ 1.56 µM) | 0.23 (≈ 0.716 µM) | 0.22 (≈ 0.685 µM) | – | – | inhibition (Tubulin (Bos taurus)): 24% |
| COc1ccc(C2NC(=O)c3ccccc3N2)c(OC)c1 (centres undefined) | 7.6 (≈ 26.7 µM) | > 20 | > 20 | – | > 20 | > 20 | – | > 20 | > 20 | > 20 | > 40 | inactive | Inhibition (HOS [2]): 40%; Inhibition (KB [8]): 43% |
| COc1cccc(-c2nc(O)c3cc(N4CCCCC4)ccc3n2)c1 | 0.6 (≈ 1.79 µM) | – | 4.3 (≈ 12.8 µM) | 0.9 (≈ 2.68 µM) | 4.5 (≈ 13.4 µM) | 10 (≈ 29.8 µM) | 9 (≈ 26.8 µM) | 2.8 (≈ 8.35 µM) | 10 (≈ 29.8 µM) | 8.5 (≈ 25.3 µM) | – | – | – |
| COc1cccc(-c2nc(O)c3ccccc3n2)c1OC | > 20 | – | – | – | – | 20 (≈ 70.8 µM) | – | > 20 | – | 20 (≈ 70.8 µM) | – | inactive | ED50 (HCT-8 [14]): inactive; ED50 (1A9 [12]): inactive; ED50 (SK-MEL-2 [15]): inactive; ED50 (KB [10]): inactive; ED50 (HOS [13]): inactive |
| COc1cccc(-c2nc(O)c3cc(OC)ccc3n2)c1 | 3.5 (≈ 12.4 µM) | > 20 | – | 3.4 (≈ 12 µM) | > 20 | > 20 | > 20 | – | – | 8 (≈ 28.3 µM) | – | – | – |
| COc1ccc(C2NC(=O)c3ccccc3N2)cc1OC (centres undefined) | 16 (≈ 56.3 µM) | > 20 | > 20 | – | > 20 | > 20 | – | > 20 | > 20 | 20 (≈ 70.3 µM) | > 40 | inactive | Inhibition (HOS [2]): 24%; Inhibition (PC-3 [6]): 30%; Inhibition (KB [8]): 28% |
| COc1cccc(C2NC(=O)c3cc(Cl)ccc3N2)c1 (centres undefined) | 0.42 (≈ 1.45 µM) | 20 (≈ 69.3 µM) | 0.48 (≈ 1.66 µM) | 0.27 (≈ 0.935 µM) | < 2.5 | 2.5 (≈ 8.66 µM) | > 20 | 0.6 (≈ 2.08 µM) | 0.95 (≈ 3.29 µM) | 16 (≈ 55.4 µM) | 1.5 | – | – |
| COc1ccc(OC)c(C2NC(=O)c3ccccc3N2)c1 (centres undefined) | 8.4 (≈ 29.5 µM) | > 20 | > 20 | 10 (≈ 35.2 µM) | > 20 | > 20 | > 20 | > 20 | > 20 | > 20 | 32 | – | Inhibition (HOS [2]): 40%; Inhibition (KB [8]): 40% |
| COc1cccc(-c2nc(O)c3cc(OC)c(OC)cc3n2)c1 | – | > 20 | > 20 | – | 18 (≈ 57.6 µM) | 15 (≈ 48 µM) | > 20 | > 20 | – | 12 (≈ 38.4 µM) | – | – | – |
| COc1cccc(-c2nc(O)c3cc(N4CCC(C)CC4)ccc3n2)c1 | 2.5 (≈ 7.15 µM) | – | 4 (≈ 11.4 µM) | 0.8 (≈ 2.29 µM) | 7.5 (≈ 21.5 µM) | – | – | 6 (≈ 17.2 µM) | – | 10 (≈ 28.6 µM) | – | – | – |
| COc1ccccc1-c1nc(O)c2ccccc2n1 | > 20 | > 20 | – | – | – | – | – | > 20 | > 20 | > 20 | – | inactive | ED50 (1A9 [16]): > 20 µg/mL; ED50 (HCT-8 [14]): inactive; ED50 (SK-MEL-2 [15]): inactive; ED50 (PC-3 [17]): inactive |
